For this series, the target named is HBV. The settings on record: ASO.

Values joined by “and” are separate entries in the source; they are usually repeats but may differ in a detail not shown here. Equal values may be shown once. HELM strings list units from the 5' end as sugar, base in round brackets, then linkage (d deoxyribose, r ribose, m 2'-O-methyl, p phosphodiester). Methylation of C is not given here. [moe] = 2'-O-(2-methoxyethyl) (MOE); [cEt] = constrained ethyl (cEt); [sp] = phosphorothioate linkage

Turning to “RNA1{[moe](A)[sp].[moe](C)[sp].[moe](G)[sp].[moe](G)[sp].d(G)[sp].d(C)[sp].d(A)[sp].d(A)[sp].d(C)[sp].d(A)[sp].d(T)[sp].d(A)[sp].d(C)[sp].[moe](C)[sp].[moe](T)[sp].[moe](T)}$$$$V2.0”, under “HepG2, 0.07 µM”, the target mRNA inhibition is 50% and 54%.

Regarding “RNA1{[moe](A)[sp].[moe](G)[sp].[moe](A)[sp].d(A)[sp].d(G)[sp].d(T)[sp].d(C)[sp].d(C)[sp].d(A)[sp].d(C)[sp].d(C)[sp].d(A)[sp].d(C)[sp].[cEt](G)[sp].[cEt](A)[sp].[cEt](G)}$$$$V2.0”, the target mRNA inhibition (HepG2, 0.07 µM) is 42% and 55%.

As for “RNA1{[moe](G)[sp].[moe](T)[sp].[moe](G)[sp].[moe](A)[sp].d(A)[sp].d(G)[sp].d(C)[sp].d(G)[sp].d(A)[sp].d(A)[sp].d(G)[sp].d(T)[sp].d(G)[sp].[moe](C)[sp].[moe](A)[sp].[moe](C)}$$$$V2.0”, for the setting “HepG2, 0.07 µM”, the target mRNA inhibition is 62% and 71%.

Regarding “RNA1{[moe](C)[sp].[moe](T)[sp].[moe](G)[sp].d(G)[sp].d(A)[sp].d(G)[sp].d(C)[sp].d(C)[sp].d(A)[sp].d(C)[sp].d(C)[sp].d(A)[sp].[moe](G)[sp].[moe](C)[sp].[moe](A)[sp].[moe](G)}$$$$V2.0”, the target mRNA inhibition (HepG2, 0.07 µM) was 42% and 38%.

On to “RNA1{[moe](C)[sp].[moe](C)[sp].d(A)[sp].d(C)[sp].d(T)[sp].d(G)[sp].d(A)[sp].d(A)[sp].d(C)[sp].d(A)[sp].d(A)[sp].[moe](A)[sp].[moe](T)[sp].[moe](G)[sp].[moe](G)[sp].[moe](C)}$$$$V2.0”, for which the target mRNA inhibition (HepG2, 0.0092593 µM) was determined as 8%; the target mRNA inhibition (HepG2, 0.0277778 µM) was 27%; the target mRNA inhibition (HepG2, 0.07 µM) was 74% and 70%; the target mRNA inhibition (HepG2, 0.0833333 µM) is 54%; the target mRNA inhibition (HepG2, 0.25 µM) was determined as 76%.

Take “RNA1{[moe](T)[sp].[cEt](G)[sp].d(G)[sp].d(A)[sp].d(G)[sp].d(C)[sp].d(C)[sp].d(A)[sp].d(C)[sp].d(C)[sp].d(A)[sp].d(G)[sp].[cEt](C)[sp].[moe](A)[sp].[cEt](G)[sp].[moe](G)}$$$$V2.0”: for the setting “HepG2, 0.07 µM”, the target mRNA inhibition is 59% and 42%.

For “RNA1{[moe](A)[sp].[cEt](C)[sp].[cEt](T)[sp].d(G)[sp].d(G)[sp].d(A)[sp].d(G)[sp].d(C)[sp].d(C)[sp].d(A)[sp].d(C)[sp].d(C)[sp].d(A)[sp].[cEt](G)[sp].[cEt](C)[sp].[moe](A)}$$$$V2.0”, under “HepG2, 0.07 µM”, the target mRNA inhibition was 67% and 75%.

On to “RNA1{[moe](G)[sp].[moe](G)[sp].[moe](C)[sp].d(A)[sp].d(T)[sp].d(A)[sp].d(G)[sp].d(C)[sp].d(A)[sp].d(G)[sp].d(C)[sp].d(A)[sp].d(G)[sp].[moe](G)[sp].[moe](A)[sp].[moe](T)[sp].[moe](G)}$$$$V2.0”, for which the target mRNA inhibition is, setting by setting: (HepG2, 0.0092593 µM) 11%; (HepG2, 0.009375 µM) 42%; (HepG2, 0.01875 µM) 30%; (HepG2, 0.0277778 µM) 28%; (HepG2, 0.0375 µM) 43%; (HepG2, 0.075 µM) 61%. Besides, the target mRNA inhibition was determined as 60% (HepG2, 0.0833333 µM); 77% (HepG2, 0.15 µM); 77% (HepG2, 0.25 µM); 91% (HepG2, 0.3 µM).

Regarding “RNA1{[moe](A)[sp].[moe](A)[sp].[moe](C)[sp].[moe](T)[sp].[moe](G)[sp].[moe](G)[sp].d(A)[sp].d(G)[sp].d(C)[sp].d(C)[sp].d(A)[sp].d(C)[sp].d(C)[sp].d(A)[sp].d(G)[sp].[moe](C)[sp].[moe](A)}$$$$V2.0”, the target mRNA inhibition (HepG2, 0.07 µM) is 70% and 50%.

For the substance “RNA1{[moe](A)[sp].[moe](C)[sp].[moe](G)[sp].[moe](T)[sp].d(G)[sp].d(C)[sp].d(A)[sp].d(G)[sp].d(A)[sp].d(G)[sp].d(G)[sp].d(T)[sp].d(G)[sp].[moe](A)[sp].[moe](A)[sp].[moe](G)}$$$$V2.0”, where the note is “HepG2, 0.07 µM”, the target mRNA inhibition is 53% and 45%.

On to “RNA1{[moe](A)[sp].[moe](C)[sp].[moe](G)[sp].d(T)[sp].d(G)[sp].d(C)[sp].d(A)[sp].d(G)[sp].d(A)[sp].d(G)[sp].d(G)[sp].d(T)[sp].d(G)[sp].[cEt](A)[sp].[cEt](A)[sp].[cEt](G)}$$$$V2.0”, for which, under “HepG2, 0.07 µM”, the target mRNA inhibition is 74% and 78%.

For the substance “RNA1{[moe](G)[sp].[cEt](A)[sp].[cEt](A)[sp].d(G)[sp].d(A)[sp].d(T)[sp].d(G)[sp].d(A)[sp].d(G)[sp].d(G)[sp].d(C)[sp].d(A)[sp].d(T)[sp].[cEt](A)[sp].[cEt](G)[sp].[moe](C)}$$$$V2.0”, under “HepG2, 0.07 µM”, the target mRNA inhibition is 69% and 66%.

As to “RNA1{[moe](C)[sp].[moe](C)[sp].[moe](G)[sp].[moe](C)[sp].[moe](A)[sp].d(G)[sp].d(T)[sp].d(A)[sp].d(T)[sp].d(G)[sp].d(G)[sp].d(A)[sp].d(T)[sp].d(C)[sp].[moe](G)[sp].[moe](G)}$$$$V2.0”, the target mRNA inhibition (HepG2, 0.07 µM) is 75% and 71%.

Regarding “RNA1{[moe](A)[sp].[moe](A)[sp].[moe](G)[sp].d(A)[sp].d(T)[sp].d(G)[sp].d(A)[sp].d(G)[sp].d(G)[sp].d(C)[sp].d(A)[sp].d(T)[sp].[moe](A)[sp].[moe](G)[sp].[moe](C)[sp].[moe](A)[sp].[moe](G)}$$$$V2.0”, the target mRNA inhibition (HepG2, 0.07 µM) is 69% and 60%.

As for “RNA1{[moe](T)[sp].[moe](G)[sp].d(A)[sp].d(A)[sp].d(G)[sp].d(C)[sp].d(G)[sp].d(A)[sp].d(A)[sp].d(G)[sp].d(T)[sp].[moe](G)[sp].[moe](C)[sp].[moe](A)[sp].[moe](C)[sp].[moe](A)}$$$$V2.0”, the target mRNA inhibition (HepG2, 0.07 µM) was 69% and 54%.

Under “HepG2, 0.07 µM”, “RNA1{[moe](A)[sp].[moe](G)[sp].[moe](A)[sp].[moe](G)[sp].d(A)[sp].d(A)[sp].d(G)[sp].d(T)[sp].d(C)[sp].d(C)[sp].d(A)[sp].d(C)[sp].d(C)[sp].[moe](A)[sp].[moe](C)[sp].[moe](G)[sp].[moe](A)}$$$$V2.0” yielded a target mRNA inhibition of 17%.

Consider “RNA1{[moe](T)[sp].[cEt](C)[sp].[cEt](C)[sp].d(G)[sp].d(C)[sp].d(A)[sp].d(G)[sp].d(T)[sp].d(A)[sp].d(T)[sp].d(G)[sp].d(G)[sp].d(A)[sp].[cEt](T)[sp].[cEt](C)[sp].[moe](G)}$$$$V2.0”, for which, for the setting “HepG2, 0.07 µM”, the target mRNA inhibition was 79% and 76%.

Turning to “RNA1{[moe](C)[sp].[moe](T)[sp].[moe](A)[sp].[moe](G)[sp].[moe](T)[sp].d(A)[sp].d(A)[sp].d(A)[sp].d(C)[sp].d(T)[sp].d(G)[sp].d(A)[sp].d(G)[sp].d(C)[sp].[moe](C)[sp].[moe](A)}$$$$V2.0”, the target mRNA inhibition (HepG2, 0.07 µM) is 71% and 63%.

Take “RNA1{[moe](T)[sp].[moe](G)[sp].[moe](A)[sp].[moe](G)[sp].[moe](G)[sp].d(C)[sp].d(A)[sp].d(T)[sp].d(A)[sp].d(G)[sp].d(C)[sp].d(A)[sp].d(G)[sp].d(C)[sp].[moe](A)[sp].[moe](G)[sp].[moe](G)}$$$$V2.0”: the target mRNA inhibition (HepG2, 0.07 µM) was 45% and 44%.

As to “RNA1{[moe](C)[sp].[cEt](A)[sp].d(A)[sp].d(T)[sp].d(T)[sp].d(T)[sp].d(A)[sp].d(T)[sp].d(G)[sp].d(C)[sp].d(C)[sp].d(T)[sp].[cEt](A)[sp].[moe](C)[sp].[cEt](A)[sp].[moe](G)}$$$$V2.0”, the target mRNA inhibition (HepG2, 0.07 µM) is 35% and 34%.

Take “RNA1{[moe](C)[sp].[moe](A)[sp].[moe](C)[sp].[moe](T)[sp].d(A)[sp].d(G)[sp].d(T)[sp].d(A)[sp].d(A)[sp].d(A)[sp].d(C)[sp].d(T)[sp].d(G)[sp].[moe](A)[sp].[moe](G)[sp].[moe](C)[sp].[moe](C)}$$$$V2.0”: the target mRNA inhibition (HepG2, 0.07 µM) was 61% and 54%.

With “RNA1{[moe](A)[sp].[cEt](C)[sp].[cEt](C)[sp].d(A)[sp].d(C)[sp].d(T)[sp].d(G)[sp].d(A)[sp].d(A)[sp].d(C)[sp].d(A)[sp].d(A)[sp].d(A)[sp].[cEt](T)[sp].[cEt](G)[sp].[moe](G)}$$$$V2.0”, the target mRNA inhibition (HepG2, 0.07 µM) is 70% and 57%.

Consider “RNA1{[moe](G)[sp].[cEt](G)[sp].d(C)[sp].d(A)[sp].d(T)[sp].d(A)[sp].d(G)[sp].d(C)[sp].d(A)[sp].d(G)[sp].d(C)[sp].d(A)[sp].[cEt](G)[sp].[moe](G)[sp].[cEt](A)[sp].[moe](T)}$$$$V2.0”, for which the target mRNA inhibition (HepG2, 0.07 µM) was 74% and 75%.

On to “RNA1{[moe](G)[sp].[cEt](A)[sp].d(A)[sp].d(C)[sp].d(A)[sp].d(A)[sp].d(A)[sp].d(T)[sp].d(G)[sp].d(G)[sp].d(C)[sp].d(A)[sp].[cEt](C)[sp].[moe](T)[sp].[cEt](A)[sp].[moe](G)}$$$$V2.0”, for which, where the note is “HepG2, 0.07 µM”, the target mRNA inhibition is 75% and 79%.

As for “RNA1{[moe](A)[sp].[moe](C)[sp].[moe](C)[sp].d(A)[sp].d(A)[sp].d(T)[sp].d(T)[sp].d(T)[sp].d(A)[sp].d(T)[sp].d(G)[sp].d(C)[sp].d(C)[sp].[cEt](T)[sp].[cEt](A)[sp].[cEt](C)}$$$$V2.0”, for the setting “HepG2, 0.07 µM”, the target mRNA inhibition was 24% and 28%.

As to “RNA1{[moe](C)[sp].[moe](G)[sp].[moe](A)[sp].d(A)[sp].d(C)[sp].d(C)[sp].d(A)[sp].d(C)[sp].d(T)[sp].d(G)[sp].d(A)[sp].d(A)[sp].[moe](C)[sp].[moe](A)[sp].[moe](A)[sp].[moe](A)[sp].[moe](T)}$$$$V2.0”, the target mRNA inhibition (HepG2, 0.07 µM) is 60% and 50%.

Turning to “RNA1{[moe](A)[sp].[moe](G)[sp].d(G)[sp].d(T)[sp].d(G)[sp].d(A)[sp].d(A)[sp].d(G)[sp].d(C)[sp].d(G)[sp].d(A)[sp].[moe](A)[sp].[moe](G)[sp].[moe](T)[sp].[moe](G)[sp].[moe](C)}$$$$V2.0”, under “HepG2, 0.07 µM”, the target mRNA inhibition is 70% and 60%.

Consider “RNA1{[moe](A)[sp].[moe](C)[sp].[moe](G)[sp].[moe](G)[sp].[moe](G)[sp].d(C)[sp].d(A)[sp].d(A)[sp].d(C)[sp].d(A)[sp].d(T)[sp].d(A)[sp].d(C)[sp].d(C)[sp].[moe](T)[sp].[moe](T)[sp].[moe](G)}$$$$V2.0”, for which the target mRNA inhibition (HepG2, 0.07 µM) was 48% and 45%.

On to “RNA1{[moe](A)[sp].[moe](T)[sp].[moe](G)[sp].[moe](A)[sp].d(G)[sp].d(G)[sp].d(C)[sp].d(A)[sp].d(T)[sp].d(A)[sp].d(G)[sp].d(C)[sp].d(A)[sp].[moe](G)[sp].[moe](C)[sp].[moe](A)}$$$$V2.0”, for which the target mRNA inhibition (HepG2, 0.07 µM) is 54% and 49%.

The record behind these values is the OligoGym collection.
